Measured values from paper PMC2116318 (The Journal of Cell Biology, 1990).

Legend:
[1] = tested on: sea urchin egg CaM kinase; assay: Autocamtide-2 phosphorylation by sea urchin egg extracts; format: biochemical, L. pictus (sea urchin)
[2] = tested on: 56-kD α-like egg polypeptide (sea urchin egg CaM kinase); assay: Endogenous phosphorylation in sea urchin egg calmodulin-depleted cytosol; format: biochemical, L. pictus (sea urchin); conditions: 50 μM peptide in Fig. 5 A
[3] = tested on: L. pictus eggs (nuclear envelope breakdown); assay: Nuclear envelope breakdown; format: cell-based, L. pictus (sea urchin); conditions: for Delay of NEB (fraction of eggs) / Duration of delay of NEB / Normal NEB (fraction of eggs): Table I, injected before fertilization
[4] = tested on: rat brain CaM kinase; assay: Autophosphorylation of rat brain CaM kinase; format: biochemical; conditions: 50 μM peptide in Fig. 5 B
[5] = tested on: rat brain CaM kinase; assay: Autocamtide-2 phosphorylation by purified rat brain CaM kinase; format: biochemical
[6] = higher concentrations, over 4% of the cell volume

Substance: CaMK(284-302): control peptide, lacks a critical region of the autoinhibitory domain and therefore does not inhibit CaM kinase (QETVDCLKKFNARRKLKGA; UniProt P11275 284-302, looked up, fragment)
- inhibition of egg kinase (in words) ([1]; Discussion summary): very weak inhibitor
- phosphorylation of autocamtide-2 (effect in words) ([1]; calmodulin-depleted cytosol fractions, Fig. 4): not affected
- inhibitory effects on phosphorylation of autocamtide-2 (in words) ([1]; sea urchin egg extracts, concentrations up to 100 μM, Fig. 4): no apparent inhibitory effects
- endogenous phosphorylation of the α-like subunit (effect in words) [2]: only marginally affected
- effect on NEB (in words) ([3]; Discussion summary): minimal effects on NEB
- Delay of NEB (fraction of eggs) ([3]; 1.7-3.5% vol, 60-190 μM): 1/9
- Duration of delay of NEB ([3]; 1.7-3.5% vol, 60-190 μM): 9 min
- Normal NEB (fraction of eggs) ([3]; 1.7-3.5% vol, 60-190 μM): 8/9
- Delay of NEB (fraction of eggs) ([3]; 4.1-4.8% vol, 220-260 μM): 3/4
- Duration of delay of NEB ([3]; 4.1-4.8% vol, 220-260 μM): 11 to 27 min
- Normal NEB (fraction of eggs) ([3]; 4.1-4.8% vol, 220-260 μM): 1/4
- NEB (in words) ([3]; control peptide, text on Fig. 6): normal NEB
- delay of NEB in one case ([3]; estimated intracellular concentration 80 μM): 9 min
- delay of NEB ([3]; higher concentrations, injection volumes over 4% of the cell volume): 11 to 27 min
- cases in which NEB proceeded normally [3, 6]: one case
- cases with delayed NEB [3, 6]: three of four
- autophosphorylation of rat brain kinase (effect in words) [4]: only slightly inhibited
- inhibition of brain kinase (in words) ([5]; Discussion summary): very weak inhibitor
- inhibition of rat brain kinase (in words) ([5]; Fig. 4): does not inhibit rat brain kinase
